In patent US6821516B1, “Macrophages, process for preparing the same and their use as active substances of pharmaceutical compositions” (I.D.M. Immuno-Designed Molecules, priority 1993, dated 2004):

Test system: U937 tumor cells
Experiment: In vitro antitumoral assay: inhibition of 3H-thymidine incorporation by U937 tumor cells, macrophage/U937 ratio 1/1
Format: cell-based, human
Conditions: mean and standard error of 8 preparations
Description: The “cytotoxic activity” corresponds to the one measured as the percentage of inhibition of 3-H thymidine incorporation by target tumoral cells, particularly U937 cells, and a test for this measure is hereafter given:
Differentiated macrophages were seeded into 96-well flat microtiter plates at 10^4 macrophages/well in 0.2 ml. After 2 h incubation at 37° C. in 5% CO2 humidified atmosphere, the medium was removed and replaced by IMDM+5% hu AB serum containing or not 250 U/ml of rhu IFNγ; plates were further incubated overnight. After washing, 10^4 U937 tumor cells in 0.2 ml fresh medium (IMDM+10% FCS) were added to each well. After 24 h contact, 0.1 μCi of tritiated thymidine was added to each well for a further 24 h incubation.
The cells were collected and the determination of incorporated radioactivity on the fiber glass filters was carried out by β counting. The percentage inhibition of thymidine incorporation by tumor cells could be calculated according to the formula: [formula]
The cytotoxic activity is determined with U937 cells, the ratio between macrophages and U937 being of 1/1. […]
The cells were collected and the determination of incorporated radioactivity on the fiber glass filters was carried out by β counting. The % inhibition of thymidine incorporation by tumor cells was calculated according the formula: [formula]

Substance: +GM-CSF
- cytotoxic activity +IFN-γ: % inhibition of 3H-thymidine incorporation by U937 cells (after activation with 250 U/ml IFN-γ): 76 +/− 5%
- cytotoxic activity −IFN-γ: % inhibition of 3H-thymidine incorporation by U937 cells (without IFN-γ activation (spontaneous)): 44 +/− 5%
